Experimental data: patent US20220096484A1, “METHODS AND COMPOSITIONS FOR TREATING CANCER BY TARGETING FATP2 AND MYELOID DERIVED SUPPRESSOR CELLS” (The Wistar Institute of Anatomy and Biology, priority 2019, published 2022)

How the values were obtained:
[1] = tested on: PMN differentiated from HPCs; assay: PMN generated from HPC in the presence of GM-CSF and arachidonic acid; type: cell-based, mouse
Protocol: Single cells suspensions from spleen and tumors were prepared as described above. Then cells were stained and sorted on BD FACS Aria BD (Biosciences). PMN-MDSC)(CD45^+ CD11b^+Ly6G^+Ly6C^lo and M-MDSC (CD45^+ CD11b^+Ly6G^−Ly6C^hi) were plated in U-bottom 96-well plates (3 replicates) in RPMI with 10% FBS and co-cultured at different ratios with splenocytes from Pmel or OT-1 transgenic mice in the presence of cognate peptides: OT-1 (SIINFEKL; 0.1 ng/ml), Pmel (EGSRNQDWL; 0.1 μg/ml). After 48 h, cells were incubated with [^3H]-thymidine (PerkinElmer) for 16-18 h. Proliferation was measured by using TopCount NXT instrument (PerkinElmer).
RNA was extracted using Total RNA Kit according to manufacturer's instructions. DNase digestion was performed cDNA was generated with High-Capacity cDNA Reverse Transcription Kit (Applied Biosystems, Foster City, Calif., USA). qRT-PCR was performed using Power SYBR Green PCR Master Mix (Applied Biosystems) in 96- or 384 well plates. Plates were read with ABI 7900 (Applied Biosystems).
Mouse neutrophils were generated from enriched bone marrow hematopoietic progenitor cells (HPCs) with 20 ng/ml of GM-CSF. Briefly, HPCs were isolated from mouse BM by using Lineage depletion kit (Miltenyi), according to manufacturer's instructions. Cells were seeded at 25000 cell/ml in 24 well plates and GM-CSF (20 ng/ml), 20% v/v TES or arachidonic acid (10 μM) were added at day 0 and day 3. At day 5, Ly6G positive neutrophils were isolated by using anti-Ly6G biotin (Miltenyi) and streptavidin beads (Miltenyi), according to manufacturer's instructions.
HPCs were isolated from mouse BM by using Lineage depletion kit (Miltenyi), according to manufacturer's instructions. HPC were resuspended in serum-free medium (SFM) containing lentiviral vectors followed by centrifugation of the plate at 1000 rpm for 20 min at 25° C. Fresh media supplemented with GM-CSF (20 ng/ml) was then added and cells were seeded at 25000 cell/ml in 24 well plates. At day 3, GM-CSF and 20% v/v TES were added to the culture. At day 5, cells were collected, stained with PE conjugated anti mouse Ly6G, APC conjugated anti mouse Ly6C and BV421 conjugated anti-mouse CD11b, and GFP^− and GFP^+Ly6G^+ cells were sorted on BD FACS Melody (BD Biosciences). GFP^− and GFP^+Ly6G^+ cells were seeded at 2.000.000 cells/ml in presence of GM-CSF and TES and incubated for further 24 hours. Pellets and supernatants were collected for further analysis. PGE2 concentration in supernatants was measured by using PGE2 ELISA KIT (Invitrogen), according to manufacturer's instructions.

STAT5 / FATP2 in PMN = assay: Mouse bone marrow PMN treated with GM-CSF (pSTAT5 flow cytometry, FATP2 Western blot); type: cell-based
Protocol: Cells were lysed in RIPA buffer (Sigma-Aldrich) in presence of protease inhibitor cocktail (Sigma-Aldrich), sonicated and stored at −80° C. Whole cell lysates were prepared and subjected to 10% SDS-PAGE and transferred to PVDF membrane. The membranes were probed overnight at 4° C. with the antibodies specific for FATP2 (SLC27A2) (ThermoFisher), ACTIN, GAPDH, STAT5 (Cell Signaling Technology). Membranes were washed and incubated for 1 h at room temperature with secondary antibody conjugated with peroxidase.
Slc27a2 promoter has a binding site for the transcription factor STAT5 (http://jaspar.genereg.net). STAT5 can be activated by GM-CSF, which plays a critical role in myelopoiesis and expansion of MDSC^23. To explore whether GM-CSF might control slc27a2 expression through STAT5 activation we treated PMN isolated from BM of tumor free mice with GM-CSF for 2 hrs. […] To confirm the role of STAT5 in controlling the expression of slc27a2 in PMN, we crossed Stat5″ mice with S100A8-cre mice to target the deletion of Stat5 to PMN. In the absence of Stat5 in PMN, the tumor growth was slower than in control mice (FIG. 11I). This was associated with lower expression of slc27a2 in PMN (FIG. 11J).

[2] = tested on: pSTAT5 / FATP2 in human PMNs; assay: Human PMN from healthy donors treated with GM-CSF (pSTAT5, FATP2); type: cell-based; details: human PMNs from blood of healthy donors
Source text: FIG. 12A, Lipid accumulation (measured by BODIPY staining) in M-MDSCs isolated from the blood of patients with cancer or healthy individuals. Each circle indicates an individual. FIG. 12B, Amount of lipids (BODIPY staining) in M-MDSCs from blood and tumor tissue of patients with cancer. Each circle indicates an individual (n=5). FIG. 12C, RNA-seq analysis of genes involved in lipid accumulation in human LOX1^+ PMN-MDSCs and LOX1^− PMNs (n=4). FIG. 12D, PTGES expression in LOX1^+ and LOX1^− PMNs from blood of patients with cancer. Fold change compared with LOX1^− PMNs (n=3). FIG. 12E, SLC27A2 expression in M-MDSCs and monocytes isolated from blood of patients with cancer and healthy donors, respectively. Each circle indicates an individual (n=4-6). Data are mean±s.d. FIG. 12F, pSTAT5 by flow cytometry at different time points, in human PMNs isolated from the blood of healthy donors and treated with different amounts of GM-CSF. FIG. 12G, FATP2 in PMNs isolated from blood of healthy donors and treated with GM-CSF. Representative of three independent experiments. FIG. 12H, Content of total phosphatidylethanolamine (PE) and arachidonoyl-containing phosphatidylethanolamine (AA-PE) in PMN-MDSCs isolated from patients with lung cancer (n=5) or healthy donors (n=4). Each circle indicates an individual. Data are mean±s.d. *P<0.05, **P<0.01, ***P<0.001, ****P<0.0001, unpaired two-sided Student's t-test. […]

[3] = PMN differentiated from HPC in the presence of AA

Compound | expansion of PMN-MDSC ([1]; HPC with GM-CSF and AA (10 μM)) | suppression of antigen specific T cell responses by the generated PMN ([1]; HPC with GM-CSF and AA (10 μM)) | expression of nox2 [1, 3] | production of PGE2 [1, 3] | FATP2 protein (STAT5 / FATP2 in PMN; PMN from BM of tumor free mice, GM-CSF) | activation of STAT5 (pSTAT5) (STAT5 / FATP2 in PMN; PMN from BM of tumor free mice, GM-CSF for 2 hrs) | expression of FATP2 in Stat5 deficient PMN (STAT5 / FATP2 in PMN; Stat5 deficient PMN, GM-CSF) | FATP2 [2] | pSTAT5 [2]
CCCCC/C=C\C/C=C\C/C=C\C/C=C\CCCC(=O)O [AA, arachidonic acid] | favored the expansion of PMN-MDSC | suppressed antigen specific T cell responses | increased expression of nox2 | higher production of PGE2 | – | – | – | – | –
GM-CSF: cytokine that activates STAT5; plays a critical role in myelopoiesis and expansion of MDSC | – | – | – | – | up-regulation of FATP2 | dose-dependent activation of STAT5 | failed to increase the expression of FATP2 | up-regulated | up-regulated
